11 molecules from ChEMBL document CHEMBL3044637, “Microsomal delta 8,14-sterol delta 14-reductase in higher plants. Characterization and inhibition by analogues of a presumptive carbocationic intermediate of the reduction reaction” (Eur J Biochem, 1989) can be followed below.

Assay [1] deals with T1, Delta(14)-sterol reductase (Zea mays, UniProt B4FS76).
T1 sequence (B4FS76 whole entry): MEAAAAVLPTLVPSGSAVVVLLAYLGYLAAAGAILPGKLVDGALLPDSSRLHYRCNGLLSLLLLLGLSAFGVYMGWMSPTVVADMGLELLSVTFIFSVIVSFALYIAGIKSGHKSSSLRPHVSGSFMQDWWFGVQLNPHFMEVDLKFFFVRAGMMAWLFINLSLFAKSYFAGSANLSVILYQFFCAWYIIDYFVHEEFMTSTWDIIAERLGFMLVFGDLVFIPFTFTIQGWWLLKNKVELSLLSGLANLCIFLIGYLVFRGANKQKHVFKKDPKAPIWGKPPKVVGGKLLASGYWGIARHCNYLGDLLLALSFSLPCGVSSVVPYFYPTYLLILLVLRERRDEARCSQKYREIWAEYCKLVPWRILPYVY
Nature of the assay: Inhibition of Zea mays (maize) microsomal delta 8,14-steroid 14-reductase using delta 8,14-cholestadienol as substrate after 90 min by GC analysis.

Assay [2] addresses T2, Sterol-8,7-isomerase (Zea mays, UniProt Q2TU57).
T2 sequence (Q2TU57 whole entry): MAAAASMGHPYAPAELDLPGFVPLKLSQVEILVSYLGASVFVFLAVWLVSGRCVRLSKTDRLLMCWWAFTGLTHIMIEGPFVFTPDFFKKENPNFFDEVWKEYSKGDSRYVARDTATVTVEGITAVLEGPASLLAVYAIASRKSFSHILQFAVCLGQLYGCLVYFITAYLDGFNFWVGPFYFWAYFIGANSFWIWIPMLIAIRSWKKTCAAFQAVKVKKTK
In words: Inhibition of Zea mays (maize) delta8,delta7-sterol isomerase.

For assay [3], the target named is T3, Cycloeucalenol cycloisomerase (Zea mays, UniProt B6TK44).
T3 sequence (B6TK44 whole entry): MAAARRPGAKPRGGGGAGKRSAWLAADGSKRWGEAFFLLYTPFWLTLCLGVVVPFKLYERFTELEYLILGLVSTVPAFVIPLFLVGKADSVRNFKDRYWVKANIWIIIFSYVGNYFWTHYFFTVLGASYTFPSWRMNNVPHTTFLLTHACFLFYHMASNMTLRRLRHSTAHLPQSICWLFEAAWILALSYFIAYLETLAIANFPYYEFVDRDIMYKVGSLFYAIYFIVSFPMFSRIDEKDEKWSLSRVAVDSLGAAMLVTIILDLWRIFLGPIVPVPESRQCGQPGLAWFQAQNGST
Nature of the assay: Inhibition of Zea mays (maize) cycloeucalenol-obtusifolial isomerase.

The target in assay [4] is T4, Cycloeucalenol cycloisomerase (Zea mays) (UniProt B6TK44).
T4 sequence (whole entry): T3 sequence (B6TK44 whole entry)
Nature of the assay: Inhibition of Zea mays (maize) cycloeucalenol-obtusifolial isomerase at 200 uM.

Assay [5] deals with T5, Delta(14)-sterol reductase (Zea mays) (UniProt B4FS76).
T5 sequence (whole entry): T1 sequence (B4FS76 whole entry)
Nature of the assay: Inhibition of Zea mays (maize) microsomal delta 8,14-steroid 14-reductase using delta 8,14-cholestadienol as substrate at 200 uM after 90 min by GC analysis.

The target in assay [6] is T6, Sterol-8,7-isomerase (Zea mays) (UniProt Q2TU57).
T6 sequence (whole entry): T2 sequence (Q2TU57 whole entry)
In words: Inhibition of Zea mays (maize) delta8,delta7-sterol isomerase at 200 uM.

Assay [7] has as its target T5, Delta(14)-sterol reductase (Zea mays). Nature of the assay: Ratio of compound I50 to delta8,14-cholestadien-3beta-ol Km for Zea mays (maize) delta 8,14-steroid 14-reductase.

`CC(Cc1ccc(C(C)(C)C)cc1)CN1CCCCC1` (stereo not drawn) [FENPROPIDIN]: the half-inhibitory concentration (IC50) in assay [1] came out at 3000 nM; in assay [2], 80 nM; in assay [3] it was 200 nM.
The corresponding values for `C[C@@H]1[C@@H](O)CC[C@]2(C)CN(Cc3ccccc3)CC[C@@H]12` are 80 nM, 130 nM and 100 nM.
Consider `C[C@@H]1[C@@H](O)CC[C@]2(C)CCCC[C@@H]12`, for which the inhibition in assay [4], in assay [5] and in assay [6] was less than 5% throughout.
`CC(Cc1ccc(C(C)(C)C)cc1)CN1C[C@@H](C)O[C@@H](C)C1` (stereo partly drawn) [FENPROPIMORPH]: the figures for the half-inhibitory concentration (IC50) in assay [1], in assay [2] and in assay [3] were 800 nM, 400 nM and 400 nM, respectively.
Take `Clc1ccccc1CNC[C@H]1CC[C@H](CNCc2ccccc2Cl)CC1`: the inhibition in assay [4] was less than 5%. In addition, the values for the half-inhibitory concentration (IC50) in assay [1] and in assay [2] were 40000 nM and 500 nM, respectively.
Consider `CC(C)CCCC(C)CCCC(C)N1CC[C@H]2[C@H](C)[C@@H](O)CC[C@]2(C)C1` (stereo partly drawn), for which the IC50 in assay [1] came to 300 nM; in assay [2], 200 nM; in assay [3], 25 nM.
In the case of `CCCCCCCCCCCCN1CC[C@H]2[C@H](C)[C@@H](O)CC[C@]2(C)C1`, the half-maximal inhibitory concentration (IC50) in assay [1] was 90 nM; in assay [3], 100 nM.
`C=C(CC[C@@H](C)[C@H]1CCN=C2C3=C(CC[C@@]21C)[C@@]1(C)CC[C@H](O)C[C@@H]1CC3)C(C)C`: the inhibition in assay [4] was less than 5%. The results for the IC50 in assay [1] and in assay [2] were 30 nM and 800 nM, respectively. The Ratio in assay [7] turned out to be 0.00015.
For `CC(Cc1ccc(C(C)(C)C)cc1)CN1CC[C@H]2[C@H](C)[C@@H](O)CC[C@]2(C)C1` (stereo partly drawn), the results for the IC50 in assay [1] and in assay [3] were 70 nM and 100 nM, respectively. Also, in assay [7], the Ratio was 6.5e-05.
As for `CCCCCCCCCCCCCN1CC(C)OC(C)C1` (stereo not drawn) [TRIDEMORPH], the concentration for half-maximal inhibition (IC50) amounted to 25000 nM in assay [1], 400 nM in assay [2] and 400 nM in assay [3].
On to `C[C@@H]1[C@@H](O)CC[C@]2(C)CNCC[C@@H]12`, for which the concentration for half-maximal inhibition (IC50) is 4500 nM in assay [1], 10000 nM in assay [2] and 17500 nM in assay [3].
